# Literature values, collected in patent US20080146664A1, “Method for treating diseases caused by accumulation of body fat” (priority 2006, published 2008).
# Conditions: addition of conjugated linoleic acid
substance,measurement,value
conjugated linoleic acid,"lipodystrophy-like symptoms (fatty liver, splenic hypertrophy, disappearance of brown fat)",generated
same,pattern of adipose tissue decrease,partial decrease in adipose tissue
same,significant decrease in the parametrial adipose tissue,not observed
same,significant decrease in the weight of the liver,not observed
